Assay [1] concerns the target p-p38 MAPK (Homo sapiens (Human), UniProt Q16539). Kind of assay: p38 MAPK protein inhibitory ability in brain-derived cells (p-p38 immunoblot, SH-SY5Y). It is filed as cell-based. As to the method: Evaluation of p38 MAPK protein inhibitory ability in brain-derived cells
In order to identify inhibition of p-p38 MAPK in brain cells, the inhibition of p38 MAPK was identified by inducing inflammation after treating each compound to SH-SYSY cells obtained by converting human neurons into cancerous cells. In short, SH-SY5Y cells were cultured in Minimum essential medium/Eagle's balanced salts supplemented with 10% fetal bovine serum and penicillin/streptomycin (100 U/ml). SH-SY5Y cells were treated with 1 μM of Compounds 4 and 6 according to the present disclosure in a culture dish respectively and cultured for 24 hours in a CO2 incubator, and then treated with 1000 ng/ml of LPS, followed by additional culture for 6 hours in a CO2 incubator.
(§1) After cell culture was terminated according to the experimental conditions, cells were washed with cold phosphate buffered saline (PBS). The cells were then collected and centrifuged at 1200 rpm for 3 minutes. The cells in the sediment were lysed with 2X sample buffer (1M Tris-HCl pH 6.8, 50% glycerol, 10% SDS, 2-mercaptoethanol, 1% bromophenol blue) and boiled at 100° C. for 10 minutes. The prepared protein samples were subjected to sodium dodecyl sulfate poly acrylamide gel electrophoresis and transferred to PVDF membrane (Millipore). For a specific binding reaction between the protein in the PVDF membrane and antibody, blocking was performed in a 5% bovine serum albumin (BSA, RMbio) solution. Subsequently, the BSA solution was discarded, and the membrane was washed with PBS-T (0.5% Tween 20 in PBS). The binding reaction of the protein in the membrane and antibody was performed overnight at 4° C. and washed again with PBS-T. Finally, a secondary antibody (Cell signaling Technology) conjugated with horse radish peroxidase (HRP) was diluted in PBS-T and reacted at room temperature for 2 hours. Luminata Forte HRP substrate (Millipore) was used to determine the amount of protein in the membrane, the results of which are shown in Table 8 below.

In assay [2] the target is p-p38 MAPK (Mus musculus (Mouse), UniProt P47811). In words: p38 MAPK protein inhibitory ability in normal brain cells (p-p38 immunoblot, primary neurons). It is filed as cell-based, ICR mice.
Description: Evaluation of p38 MAPK protein inhibitory ability in normal brain cells
In order to identify inhibition of p-p38 MAPK in normal cells rather than cancer cells, the inhibition of p38 MAPK was identified by inducing inflammation after treating neuron cells obtained from cerebrum of ICR mice with each compound. In short, neurons were collected from the cerebrum of the embryos of ICR mice 17-18 days after gestation and cultured for 7 days in a neurobasal medium supplemented with 2% B27 supplements, 2 mM glutamine, and penicillin/streptomycin (100 U/ml). Primary neurons were treated with 1 μM of Compounds 4 and 6 according to the present disclosure in a culture dish respectively and cultured for 24 hours in a CO2 incubator, and then treated with 1000 ng/ml of LPS, followed by additional culture for 6 hours in a CO2 incubator.
as §1, with “After the” for “After”, “conditions, washing was performed” for “conditions, cells were washed”, “reaction between” for “reaction of”, “Table 9” for “Table 8”
For orientation: A western blot detects proteins with antibodies after separation by electrophoresis.

The test system of a further assay is IL-1β mRNA. Kind of assay: Cytokine mRNA expression inhibitory ability, IL-1β, LPS-treated BV2 cells. The conditions noted are these: 1 μM compound 24 hours, then 1000 ng/ml LPS 24 hours. It is filed as cell-based. The protocol:
(§2) Evaluation of cytokine mRNA expression inhibitory ability by inflammatory response
(§3) In order to identify inhibition of p-p38 MAPK, the inhibition of p38 MAPK was identified by treating each compound to BV2 cells obtained by converting microglia that induces inflammation according to p-p38 MAPK activity in the brain into cancerous cells. Briefly, BV2 cells were cultured in Dulbecco's modified Eagle Medium supplemented with 10% fetal bovine serum and penicillin/streptomycin (100 U/ml). BV2 cells were treated with 1 μM of Compounds 4 to 6 according to the present disclosure in a culture dish respectively and cultured for 24 hours in a CO2 incubator, and then treated with 1000 ng/ml of LPS, followed by additional culture for 24 hours in a CO2 incubator.
(§4) After the cell culture was completed according to the experimental conditions, washing was performed with cold phosphate buffered saline (PBS). The cells were then collected and centrifuged at 1200 rpm for 3 minutes. RNA was extracted according to the method provided in the Hybrid-R total RNA purification kit (GeneAllR), 305-101). After measuring the concentration and purity of RNA using Nanodrop, cDNA was synthesized according to the method provided in TOPscript RT DryMIX (Enzynomics, RT200). […]

The next assay relates to TNFα mRNA. In words: Cytokine mRNA expression inhibitory ability, TNFα, LPS-treated BV2 cells. It is filed as cell-based. The note with it: 1 μM compound 24 hours, then 1000 ng/ml LPS 24 hours. As to the method:
as §2, §3, §4

A further assay has as its system IL-6 mRNA. Kind of assay: Cytokine mRNA expression inhibitory ability, IL-6, LPS-treated BV2 cells. It is filed as cell-based. The note with it: 1 μM compound 24 hours, then 1000 ng/ml LPS 24 hours. As to the method:
as §2, §3, §4

The text below walks through data of patent US20240270713A1, “NOVEL COMPOUND EXHIBITING THERAPEUTIC EFFECT ON INFLAMMATORY DISEASE AS P38 MAP KINASE INHIBITOR” (PRAZERTHERAPEUTICS INC., priority 2021, published 2024).

p-p38 MAPK (Homo sapiens (Human), UniProt Q16539), sequence (Q16539 whole entry): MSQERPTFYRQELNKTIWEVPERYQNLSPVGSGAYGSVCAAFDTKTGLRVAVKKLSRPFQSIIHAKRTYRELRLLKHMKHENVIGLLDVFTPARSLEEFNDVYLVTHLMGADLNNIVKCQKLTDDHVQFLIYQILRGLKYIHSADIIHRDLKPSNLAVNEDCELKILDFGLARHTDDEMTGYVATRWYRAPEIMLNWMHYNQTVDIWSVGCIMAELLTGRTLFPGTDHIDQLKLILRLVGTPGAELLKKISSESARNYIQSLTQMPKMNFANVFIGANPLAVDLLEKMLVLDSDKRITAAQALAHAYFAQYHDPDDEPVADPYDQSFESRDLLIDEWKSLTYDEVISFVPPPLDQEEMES
p-p38 MAPK (Mus musculus (Mouse), UniProt P47811), sequence (P47811 whole entry): as the sequence (Q16539 whole entry) above, with L48H, T263A counted along it

On to `Cc1c(F)cc(C(=O)NC2CC2)cc1-c1ccc(C(=O)c2cn(CC(O)CO)c3ccccc23)cn1` (stereo not shown) [Compound 6, N-cyclopropyl-3-(5-(1-(2,3-dihydroxypropyl)-1H-indole-3-carbonyl)pyridin-2-yl)-5-fluoro-4-methylbenzamide], for which the “p38 phosphorylation in cells derived from human (result in words)” value on p-p38 MAPK [1] (1 μM) is on record as “effectively inhibited p38 phosphorylation”. The inhibition at 1 µM was found to be 22.8% against p-p38 MAPK [1] (1 μM compound 24 hours, then 1000 ng/ml LPS 6 hours) and 60.7% at p-p38 MAPK [2] (primary neurons from cerebrum of ICR mouse embryos, 1 μM compound 24 hours, then 1000 ng/ml LPS 6 hours). Besides, at p-p38 MAPK [2] (primary mouse neurons, 1 μM), the “p38 phosphorylation due to inflammation in normal cells (result in words)” value is “effectively inhibited p38 phosphorylation”. For the same compound, the “IL-1β mRNA inhibition” value with IL-1β mRNA was 12.6%. Moreover, in the assay on TNFα mRNA, the “TNFα mRNA inhibition” value is recorded as 15.7%. For the same compound, the “IL-6 mRNA inhibition” value in the assay on IL-6 mRNA is recorded as 14.4%.

A word on the inhibition: it is the change of the read-out against control, counted positive when it falls. Read a low inhibition as a response near the control.
